{"source": "patent US6894079B1", "about": "“Method for reducing free-radical induced injury” (priority 1998, dated 2005)", "key": {"[1]": {"tested_on": "Rat pulmonary artery endothelial cells (RPAECs)", "test": "H2O2 oxidative stress to endothelial cell monolayers, DCFDA fluorescence (confocal imaging)", "type": "cell-based", "method": "Rat pulmonary artery endothelial cells (RPAECs) were grown to confluence on optical grade culture dishes using standard technique. Cells were grown in Dulbecco's Modified Eagles Medium (high glucose) containing […], 0.8 M NaOH 10% serum (calf serum). Cells were incubated at 37° C. in 5% CO2, 95% relative humidity.\nAn oxidative stress indicator, dichlorofluorescein diacetate (DCFDA), was used to indicate the extent of injury to cells. DCFDA is a colorless substance that permeates through the cell membrane. Fresh DCFDA (5 uM) was prepared by solubilizing 2.4 mg DCFDA in 300 ul DMSO, then diluting the solution in […] Phosphate buffered saline (PBS), pH 7.4. […] Upon excitation by contact with free radicals, the dye DCFDA becomes fluorescent and the intensity of fluorescence is directly proportional to the degree of oxidative stress suffered by the cells. […]\nOxidative stress was initiated by the addition of the buffer containing 10 mM H2O2 in PBS to the cell monolayers. Oxidative stress to cells was measured by sequential imaging with a confocal laser microscope obtained at baseline and every 10 seconds for 120 seconds. The excitation filter was wet at 488 nm and the images were read at 515 nm. […]\nRelative fluorescence of cell monolayers exposed to perflubron (open circles) and standard buffer (closed circles) are shown in FIG. 1. […] Data are expressed as mean+standard error of the mean. […]"}, "[2]": {"test": "AAPH peroxyl-radical oxidation of linoleic acid/SDS micelles, malondialdehyde formation", "conditions": "2, 4, 20 and 50 mM AAPH; 5 ml emulsion plus 5 ml perflubron, room temperature (FIGS. 4A-D)", "method": "This embodiment illustrates the effect of perfluorocarbon on fatty acid oxidation in a non-biological system (fatty acid micelles). Linoleic acid micelles were prepared as follows: Linoleic acid (3 mM) was emulsified into phosphate buffered saline (PBS) using the detergent sodium dodecyl sulfate (SDS, 250 μM). Linoleic acid/SDS micelles in PBS were formed by agitation and sonication of the resulting emulsion. The emulsion (5 ml) was exposed to perfluorocarbon by the addition of perflubron (PFOB, 5 ml, available commercially) to the system. Emulsions not exposed to perflubron served as controls. The emulsion/PFOB system (PFOB exposed micelles) and the non-exposed micelles (control) were agitated (xyz axial shaker) at room temperature. […] The degree of oxidative injury to the linoleic acid/SDS micelles was assessed by measuring malondialdehyde concentrations in aliquots taken from the emulsion phase at different time intervals. […] Malondialdehyde was measured using the method of Esterbauer and Cheeseman (Meth. Enzymol. 1990; 186:407-421). […] Absorbance changes were measured using a spectrophotometer (Beckman DU 650, Beckman Instruments) at 586 nm, against standard curves of 1,1,3,3-tetramethoxypropane at the end of the incubation period. […]"}}}
{"smiles": "FC(F)(F)C(F)(F)C(F)(F)C(F)(F)C(F)(F)C(F)(F)C(F)(F)C(F)(F)Br", "note": "[PFOB, perfluorooctyl bromide]", "values": [{"measurement": "oxidative injury to cell monolayers", "setting": "[1]; 10 mM H2O2 in PBS, imaging every 10 seconds for 120 seconds, perflubron removed by aspiration or evaporation (FIGS. 1, 2 and 3)", "value": "attenuates oxidative injury to cell monolayers"}, {"measurement": "DCFDA fluorescence (indicator of free radicals) in cell cultures", "setting": "[1]; after 120 seconds of oxidative stress with 10 mM H2O2, cells pre-exposed 1 minute to 1 ml PFOB, then removed (C120, FIG. 2 and 3)", "value": "lack of fluorescence"}, {"measurement": "oxidative damage to fatty acid micelles (malondialdehyde concentration)", "setting": "[2]", "value": "attenuates oxidative damage to fatty acid micelles"}]}
